Like-named read-outs stand apart in the source and are kept apart here.
What was measured:
Assay type in all cases: cell-based
[1] = test system: bone marrow-derived human mesenchymal stem cells (hMSCs); conditions: for hMSC viability compared with DMSO control groups: 0.2 M trehalose
Procedure: Experiments were performed using bone marrow-derived human mesenchymal stem cells (hMSCs) from various commercial sources Human Bone-Marrow Derived Mesenchymal Stem/Stromal Cells (hBM-MSCs) were isolated from normal healthy adult donors (purchased from a commercial source (such as Rooster-Bio) along with the appropriate growth media). Cells were grown according to the manufacturer's instructions).
Prior to the development of the methodology of the present disclosure, the inventors of the instant application previously assessed a nanotechnology for intracellular trehalose delivery developed by Professor Xiaoming He, University of Maryland (Zhang et al., Cold-Responsive Nanoparticle Enables Intracellular Delivery and Rapid Release of Trehalose for Organic-Solvent-Free Cryopreservation, Nano Lett. 2019, 19, 9051-9061; Rao et al., Nanoparticle-Mediated Intracellular Delivery Enables Cryopreservation of Human Adipose-Derived Stem Cells Using Trehalose as the Sole Cryoprotectant, ACS Appl Mater Interfaces, 2015, 7(8), 5017-5028), that they had shown promoted cryopreservation of adipose tissue derived hMSCs, for bone marrow-derived MSCs. Unfortunately, the trehalose nanotechnology failed during these studies, probably due to instability of the trehalose nanoparticles during storage and transport from the University of Maryland to Charleston, S.C. […] Encouraged by these unanticipated results, the range of exogenous trehalose employed was expanded to 0.2-0.8M and compared −1, −5 and −15° C./minute cooling rates.
In the preliminary experiments, the DMSO controls were clearly the best at the 1° C./minute cooling rate (65.3±2.7% of untreated controls), however, the best overall outcome was the 0.2M trehalose group at the −15° C./minute cooling rate (78.9±3.5% of untreated controls).

Pan T-cells [2] = assay: Pan T-cell metabolic activity after cryopreservation (resazurin dye); conditions: −15° C./minute
Procedure: (§1) Experiments were performed to assess 0.2-0.8M concentrations of extracellular trehalose combined with several concentrations of 0-5% DMSO and compared with the positive control, Cryostor-5, that contains 5% DMSO.
(§2) Pan T-cells were grown and expanded. The T-cells were then harvested and counted. Approximately 10×10^6 cells were used for each sample. Cells were resuspended in the various combinations of DMSO and trehalose in 1 mL and allowed to equilibrate on ice for 20 minutes. Samples were cooled in a CRF at −15° C./minute to −80° C. then moved to liquid nitrogen vapor phase storage for approximately 10 days. After storage, samples were thawed rapidly in a 37° C. water bath, transferred to a 15 mL centrifuge tube and diluted with 10 mL culture medium. An aliquot was taken for cell counting. […] Cells were allowed to recover for 60 minutes in a 37° C. incubator before viability was measured using resazurin dye (300 μl). The cells were left for 3 hours at 37° C. before the plate was read using a fluorescent microplate reader at an excitation wavelength of 544 nm and an emission wavelength of 590 nm. […]
(§3) In FIGS. 3A and 3B, cell survival after cryopreservation at −15° C./minute using combinations of DMSO and trehalose. […] Cell counts, live and dead, (A) as well as metabolic activity (B) was measured. […]

Pan T-cells [3] = assay: Pan T-cell survival after cryopreservation, live and dead cell counts (trypan blue); conditions: trehalose alone, no DMSO; −15° C./minute
Procedure: as §1, §2, §3

Row | SMILES | hMSC viability after cryopreservation [1] | hMSC viability compared with DMSO control groups ([1]; −5° C./minute cooling rate) | hMSC viability compared with DMSO control groups ([1]; −15° C./minute cooling rate) | MSC survival of cryopreservation ([1]; trehalose present only extracellularly (used as negative control)) | cell metabolic activity, difference from control Cryostor-5 (Pan T-cells [2]; 0% DMSO with 0.2M trehalose, p>0.05) | cell metabolic activity, difference from control Cryostor-5 (Pan T-cells [2]; 0% DMSO, all trehalose groups except 0.2M) | protection during cryopreservation compared with control Cryostor-5 (Pan T-cells [3])
1 | C[S+](C)[O-] [DMSO, dimethyl sulfoxide, reference compound] | 65.3±2.7 % of untreated controls |  |  |  |  |  | 
2 | OC[C@H]1O[C@H](O[C@H]2O[C@H](CO)[C@@H](O)[C@H](O)[C@H]2O)[C@H](O)[C@@H](O)[C@@H]1O [trehalose] | 78.9±3.5 % of untreated controls | same or higher viability than the DMSO control groups | same or higher viability than the DMSO control groups | survived cryopreservation quite well | significant difference | no statistically significant differences | adequate protection similar to the control
